Reference: US12258328B2, “6-membered heteroaryl-containing aminopyridine compounds as EGFR inhibitors” (YUHAN CORPORATION, priority 2021, dated 2025)
Like-named read-outs stand apart in the source and are kept apart here.

Key:
[1] = biological target: EGFR wildtype (Homo sapiens, UniProt P00533); assay: Biochemical EGFR kinase assay (Lance Ultra TR-FRET), wildtype
Method: (§1) Biochemical EGFR kinase assays were conducted using Lance Ultra time-resolved fluorescence resonance energy transfer (TR-FRET) technology from Perkin-Elmer. Compounds of the invention were initially diluted to 20 mM in 100% DMSO for storage and made into kinase buffer solution to create a compound concentration ranging from 0.003 μM and 10 μM.
(§2) Each kinase reactions were incubated at room temperature for 1 hour and then stopped by the addition of 4 μL of stop solution (10 mM EDTA). The specific Europium-labeled-anti-phosphopeptide antibody (PerkinElmer, AD0069) diluted in LANCE detection buffer was then added to a final concentration of 2 nM. After 60 minutes incubation at room temperature the LANCE signal was measured on an EnVision Multilabel Reader (Perkin-Elmer). Excitation wavelength was set at 320 nm and emission monitored at 615 nm (donor) and 665 nm (acceptor). The IC50 values were determined using GraphPad prism software (GraphPad Software, Inc., San Diego, CA, USA).

[2] = biological target: EGFR del19/C797S (Homo sapiens, UniProt P00533, C797S/DEL746-750); assay: Biochemical EGFR kinase assay (Lance Ultra TR-FRET), double mutant del19/C797S
Chain of EGFR del19/C797S (P00533 with tags, fused parts or gaps DEL746-750/C797S): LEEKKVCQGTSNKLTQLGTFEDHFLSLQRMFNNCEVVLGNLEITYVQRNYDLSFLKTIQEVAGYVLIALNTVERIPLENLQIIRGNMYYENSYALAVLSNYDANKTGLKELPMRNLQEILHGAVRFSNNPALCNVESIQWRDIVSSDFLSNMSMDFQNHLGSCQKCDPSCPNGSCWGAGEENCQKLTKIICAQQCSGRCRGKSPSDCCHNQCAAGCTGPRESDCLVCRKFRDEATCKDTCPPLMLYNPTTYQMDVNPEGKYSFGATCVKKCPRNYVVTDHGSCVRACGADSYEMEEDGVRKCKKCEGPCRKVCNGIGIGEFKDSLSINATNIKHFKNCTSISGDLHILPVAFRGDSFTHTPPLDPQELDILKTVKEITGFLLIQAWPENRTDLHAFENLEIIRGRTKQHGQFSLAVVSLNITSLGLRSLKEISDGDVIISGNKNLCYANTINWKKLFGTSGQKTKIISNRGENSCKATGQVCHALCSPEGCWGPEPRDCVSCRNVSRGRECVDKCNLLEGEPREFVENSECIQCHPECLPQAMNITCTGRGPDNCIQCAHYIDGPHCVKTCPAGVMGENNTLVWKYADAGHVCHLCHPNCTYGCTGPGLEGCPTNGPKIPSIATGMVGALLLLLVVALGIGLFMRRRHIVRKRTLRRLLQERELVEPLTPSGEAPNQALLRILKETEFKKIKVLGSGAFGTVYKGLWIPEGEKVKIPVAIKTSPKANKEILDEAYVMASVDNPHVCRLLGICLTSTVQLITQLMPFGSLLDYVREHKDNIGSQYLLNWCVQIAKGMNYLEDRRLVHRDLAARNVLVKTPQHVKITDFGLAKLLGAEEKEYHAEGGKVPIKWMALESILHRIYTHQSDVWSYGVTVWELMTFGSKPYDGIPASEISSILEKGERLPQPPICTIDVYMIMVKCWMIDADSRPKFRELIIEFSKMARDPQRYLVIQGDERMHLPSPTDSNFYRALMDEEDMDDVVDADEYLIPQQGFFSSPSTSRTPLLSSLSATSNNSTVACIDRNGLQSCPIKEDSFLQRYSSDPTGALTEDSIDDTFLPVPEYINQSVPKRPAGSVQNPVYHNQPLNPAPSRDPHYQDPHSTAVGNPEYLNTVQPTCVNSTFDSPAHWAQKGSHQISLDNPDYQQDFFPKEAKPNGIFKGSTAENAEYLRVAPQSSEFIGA
Method: as §1, §2

[3] = biological target: EGFR L858R/C797S (Homo sapiens, UniProt P00533, C797S/L858R); assay: Biochemical EGFR kinase assay (Lance Ultra TR-FRET), double mutant L858R/C797S
Chain of EGFR L858R/C797S (P00533 25-1210 C797S/L858R): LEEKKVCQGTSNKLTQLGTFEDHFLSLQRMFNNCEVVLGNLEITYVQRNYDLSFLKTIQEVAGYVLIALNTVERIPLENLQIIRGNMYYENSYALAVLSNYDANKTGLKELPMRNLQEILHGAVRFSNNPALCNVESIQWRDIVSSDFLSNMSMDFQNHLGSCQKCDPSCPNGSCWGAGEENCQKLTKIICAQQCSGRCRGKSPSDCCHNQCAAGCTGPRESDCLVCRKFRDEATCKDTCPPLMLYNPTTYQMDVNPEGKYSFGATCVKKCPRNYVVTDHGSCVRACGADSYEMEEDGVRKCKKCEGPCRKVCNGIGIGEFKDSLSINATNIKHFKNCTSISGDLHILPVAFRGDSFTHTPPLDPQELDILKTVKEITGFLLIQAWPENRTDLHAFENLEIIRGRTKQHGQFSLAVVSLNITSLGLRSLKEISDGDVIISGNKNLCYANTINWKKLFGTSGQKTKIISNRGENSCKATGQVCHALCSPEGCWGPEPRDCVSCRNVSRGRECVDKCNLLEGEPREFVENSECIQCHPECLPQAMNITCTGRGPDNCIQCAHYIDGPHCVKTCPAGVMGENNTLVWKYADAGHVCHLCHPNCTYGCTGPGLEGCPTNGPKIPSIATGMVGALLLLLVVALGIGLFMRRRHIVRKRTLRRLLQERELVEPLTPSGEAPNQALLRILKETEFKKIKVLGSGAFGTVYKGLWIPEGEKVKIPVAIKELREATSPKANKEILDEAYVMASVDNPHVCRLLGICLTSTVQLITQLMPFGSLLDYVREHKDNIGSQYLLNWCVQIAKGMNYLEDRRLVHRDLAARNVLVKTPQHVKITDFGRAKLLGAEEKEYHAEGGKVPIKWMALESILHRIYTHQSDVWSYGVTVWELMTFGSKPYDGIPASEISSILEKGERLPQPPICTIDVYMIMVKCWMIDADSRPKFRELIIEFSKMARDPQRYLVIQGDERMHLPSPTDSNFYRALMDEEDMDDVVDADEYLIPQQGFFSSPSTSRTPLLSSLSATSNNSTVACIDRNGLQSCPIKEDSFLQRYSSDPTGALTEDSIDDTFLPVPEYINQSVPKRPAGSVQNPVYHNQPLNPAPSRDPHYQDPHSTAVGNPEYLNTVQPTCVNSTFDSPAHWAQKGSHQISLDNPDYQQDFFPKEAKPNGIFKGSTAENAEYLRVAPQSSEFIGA
Method: as §1, §2

[4] = biological target: EGFR del19/T790M/C797S (Homo sapiens, UniProt P00533, C797S/DEL746-750/T790M); assay: Biochemical EGFR kinase assay (Lance Ultra TR-FRET), triple mutant del19/T790M/C797S
Chain of EGFR del19/T790M/C797S (P00533 with tags, fused parts or gaps DEL746-750/T790M/C797S): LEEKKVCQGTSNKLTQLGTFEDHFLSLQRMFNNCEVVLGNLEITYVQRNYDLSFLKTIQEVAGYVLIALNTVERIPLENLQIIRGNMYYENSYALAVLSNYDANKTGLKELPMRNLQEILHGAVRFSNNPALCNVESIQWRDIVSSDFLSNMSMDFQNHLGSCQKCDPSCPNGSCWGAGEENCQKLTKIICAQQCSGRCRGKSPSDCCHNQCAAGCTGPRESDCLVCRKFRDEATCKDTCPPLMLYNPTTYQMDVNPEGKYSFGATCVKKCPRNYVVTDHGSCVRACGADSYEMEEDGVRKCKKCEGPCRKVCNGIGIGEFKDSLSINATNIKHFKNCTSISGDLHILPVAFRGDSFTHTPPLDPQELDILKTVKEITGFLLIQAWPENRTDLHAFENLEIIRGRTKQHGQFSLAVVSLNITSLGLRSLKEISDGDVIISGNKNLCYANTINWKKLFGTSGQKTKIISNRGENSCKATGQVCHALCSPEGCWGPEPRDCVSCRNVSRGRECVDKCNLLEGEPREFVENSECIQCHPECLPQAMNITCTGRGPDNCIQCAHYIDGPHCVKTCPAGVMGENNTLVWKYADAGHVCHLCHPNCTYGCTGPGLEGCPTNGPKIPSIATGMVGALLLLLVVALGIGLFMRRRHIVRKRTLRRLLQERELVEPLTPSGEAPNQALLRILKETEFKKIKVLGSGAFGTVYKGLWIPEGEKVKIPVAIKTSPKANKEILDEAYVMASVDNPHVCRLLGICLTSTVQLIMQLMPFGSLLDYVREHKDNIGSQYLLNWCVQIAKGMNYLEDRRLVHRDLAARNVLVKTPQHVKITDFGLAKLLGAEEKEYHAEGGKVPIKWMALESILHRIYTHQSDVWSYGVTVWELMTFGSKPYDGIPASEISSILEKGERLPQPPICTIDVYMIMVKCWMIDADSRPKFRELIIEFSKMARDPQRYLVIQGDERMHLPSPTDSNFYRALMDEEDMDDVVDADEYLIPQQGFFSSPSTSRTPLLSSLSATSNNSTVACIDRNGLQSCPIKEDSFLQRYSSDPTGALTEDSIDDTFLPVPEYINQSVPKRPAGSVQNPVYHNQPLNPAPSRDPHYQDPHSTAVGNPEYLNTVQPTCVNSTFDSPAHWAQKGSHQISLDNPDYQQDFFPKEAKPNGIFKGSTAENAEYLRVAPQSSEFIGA
Method: as §1, §2

[5] = biological target: EGFR L858R/T790M/C797S (Homo sapiens, UniProt P00533, C797S/L858R/T790M); assay: Biochemical EGFR kinase assay (Lance Ultra TR-FRET), triple mutant L858R/T790M/C797S
Chain of EGFR L858R/T790M/C797S (P00533 25-1210 T790M/C797S/L858R): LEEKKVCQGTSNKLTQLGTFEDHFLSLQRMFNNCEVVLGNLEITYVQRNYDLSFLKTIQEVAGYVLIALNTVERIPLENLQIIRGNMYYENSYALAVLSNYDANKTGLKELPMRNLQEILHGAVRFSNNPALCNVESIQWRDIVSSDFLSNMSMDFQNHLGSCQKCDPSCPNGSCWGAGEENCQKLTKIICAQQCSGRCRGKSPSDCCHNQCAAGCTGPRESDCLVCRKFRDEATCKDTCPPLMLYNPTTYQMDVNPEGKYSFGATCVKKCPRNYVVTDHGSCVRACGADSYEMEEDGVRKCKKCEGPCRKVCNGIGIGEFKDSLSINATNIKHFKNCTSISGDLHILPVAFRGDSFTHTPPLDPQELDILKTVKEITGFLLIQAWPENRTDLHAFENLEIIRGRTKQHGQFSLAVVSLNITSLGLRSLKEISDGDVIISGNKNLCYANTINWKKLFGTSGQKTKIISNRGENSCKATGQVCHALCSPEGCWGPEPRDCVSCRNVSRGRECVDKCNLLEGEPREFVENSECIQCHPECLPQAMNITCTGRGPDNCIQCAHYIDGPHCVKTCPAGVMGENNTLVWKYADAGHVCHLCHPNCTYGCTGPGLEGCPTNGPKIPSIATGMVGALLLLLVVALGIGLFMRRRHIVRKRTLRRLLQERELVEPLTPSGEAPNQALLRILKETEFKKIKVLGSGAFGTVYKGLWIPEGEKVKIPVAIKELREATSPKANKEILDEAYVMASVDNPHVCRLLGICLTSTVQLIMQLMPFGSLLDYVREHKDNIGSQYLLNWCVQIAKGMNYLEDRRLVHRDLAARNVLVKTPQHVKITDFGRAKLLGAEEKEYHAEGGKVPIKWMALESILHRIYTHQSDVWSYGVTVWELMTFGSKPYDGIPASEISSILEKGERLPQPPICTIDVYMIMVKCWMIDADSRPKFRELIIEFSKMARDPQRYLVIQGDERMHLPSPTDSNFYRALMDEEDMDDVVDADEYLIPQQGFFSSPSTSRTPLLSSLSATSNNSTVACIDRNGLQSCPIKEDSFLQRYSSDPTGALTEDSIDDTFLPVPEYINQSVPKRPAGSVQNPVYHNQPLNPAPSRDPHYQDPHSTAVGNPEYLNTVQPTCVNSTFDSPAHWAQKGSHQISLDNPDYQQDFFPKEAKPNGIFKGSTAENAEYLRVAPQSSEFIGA
Method: as §1, §2

[6] = IC50 WT (nM) 100 μM ATP, 100 μM ATP
[7] = Km ATP, read-out: IC50 WT (nM) Km ATP
[8] = IC50 del19/C797S (nM) 100 μM ATP, 100 μM ATP
[9] = Km ATP, read-out: IC50 del19/C797S (nM) Km ATP
[10] = IC50 L858R/C797S (nM) 100 μM ATP, 100 μM ATP
[11] = IC50 del19/T790M/C797S (nM) 100 μM ATP, 100 μM ATP
[12] = IC50 L858R/T790M/C797S (nM) 100 μM ATP, 100 μM ATP
[13] = Km ATP, read-out: IC50 L858R/T790M/C797S (nM) Km ATP
[14] = Km ATP, read-out: IC50 L858R/C797S (nM) Km ATP
[15] = Km ATP, read-out: IC50 del19/T790M/C797S (nM) Km ATP

IC50 [1, 6] [nM] | IC50 [1, 7] [nM] | IC50 [2, 8] [nM] | IC50 [2, 9] [nM] | IC50 [3, 10] [nM] | IC50 [4, 11] [nM] | IC50 [5, 12] [nM] | IC50 [5, 13] [nM] | IC50 [3, 14] [nM] | IC50 [4, 15] [nM] | Structure (SMILES)
2690 | 3.6 | 1 | 0.4 | 11.5 | 0.4 | 0.6 | 0.2 |  |  | Cc1ccnc(-c2cnc(Nc3ccnc(-c4cnn(S(=O)(=O)C5CC5)c4)n3)cc2N[C@H]2CC[C@@](C)(O)CC2)c1 [Example 12, (1s,4s)-4-((6′-((2-(1-(Cyclopropylsulfonyl)-1H-pyrazol-4-yl)pyrimidin-4-yl)amino)-4-methyl-[2,3′-bipyridin]-4′-yl)amino)-1-methylcyclohexan-1-ol]
> 10000 |  | 8.7 |  | 113 | 0.7 | 3.1 |  |  |  | CC(=O)c1cccc(-c2cnc(Nc3ccnc(-c4cnn(S(=O)(=O)C5CC5)c4)n3)cc2N[C@H]2CC[C@@](C)(O)CC2)n1 [Example 18, 1-(6′-((2-(1-(Cyclopropylsulfonyl)-1H-pyrazol-4-yl)pyrimidin-4-yl)amino)-4′-(((1s,4s)-4-hydroxy-4-methylcyclohexyl)amino)-[2,3′-bipyridin]-6-yl)ethan-1-one]
5570 | 6.3 | 1.2 | 0.5 | 11.6 | 0.3 | 0.6 | 0.3 | 1 | 0.3 | O=S(=O)(C1CC1)n1cc(-c2nccc(Nc3cc(N[C@H]4CC[C@@H](NCCF)CC4)c(-c4ccc(CO)cn4)cn3)n2)cn1 [Example 21, (6′-((2-(1-(Cyclopropylsulfonyl)-1H-pyrazol-4-yl)pyrimidin-4-yl)amino)-4′-(((1s,4s)-4-((2-fluoroethyl)amino)cyclohexyl)amino)-[2,3′-bipyridin]-5-yl)methanol]
165 | 0.3 | 0.2 | 0.1 | 1.1 | 0.3 | 0.2 | 0.2 | 0.2 | 0.3 | O=S(=O)(C1CC1)n1cc(-c2nccc(Nc3cc(N[C@H]4CC[C@@H](CO)CC4)c(-c4ccc(CO)cn4)cn3)n2)cn1 [Example 22, (6′-((2-(1-(Cyclopropylsulfonyl)-1H-pyrazol-4-yl)pyrimidin-4-yl)amino)-4′-(((1s,4s)-4-(hydroxymethyl)cyclohexyl)amino)-[2,3′-bipyridin]-5-yl)methanol]
> 10000 | 13.7 | 5 | 1.8 | 6.2 | 1.1 | 1 |  | 0.6 | 1.6 | CC(O)c1cccc(-c2cnc(Nc3ccnc(-c4cnn(S(=O)(=O)C5CC5)c4)n3)cc2NC2CCC(C)(O)CC2)n1 (centres unmarked) [Example 23, (1s,4s)-4-((6′-((2-(1-(Cyclopropylsulfonyl)-1H-pyrazol-4-yl)pyrimidin-4-yl)amino)-6-(1-hydroxyethyl)-[2,3′-bipyridin]-4′-yl)amino)-1-methylcyclohexan-1-ol]
> 10000 | 2.8 | 2.2 | 1 | 3.5 | 8.4 | 0.9 |  | 0.7 | 1 | CC(C)(O)[C@H]1CC[C@@H](Nc2cc(Nc3ccnc(-c4cnn(S(=O)(=O)C5CC5)c4)n3)ncc2-c2ccc(CO)cn2)CC1 [Example 24, 2-((1s,4s)-4-((6′-((2-(1-(Cyclopropylsulfonyl)-1H-pyrazol-4-yl)pyrimidin-4-yl)amino)-5-(hydroxymethyl)-[2,3′-bipyridin]-4′-yl)amino)cyclohexyl)propan-2-ol]
1830 | 1.9 | 0.5 | 0.5 | 2 | 1.1 | 1.2 | 0.8 | 0.3 | 1 | CC(C)(O)[C@H]1CC[C@@H](Nc2cc(Nc3ccnc(-c4cnn(S(=O)(=O)C5CC5)c4)n3)ncc2-c2ccc(CN3CCOCC3)cn2)CC1 [Example 25, 2-((1s,4s)-4-((6′-((2-(1-(Cyclopropylsulfonyl)-1H-pyrazol-4-yl)pyrimidin-4-yl)amino)-5-(morpholinomethyl)-[2,3′-bipyridin]-4′-yl)amino)cyclohexyl)propan-2-ol]
107 | 0.9 | 0.2 | 0.2 | 0.7 | 0.4 | 0.4 | 0.2 | 0.1 | 0.4 | CN(C)Cc1ccc(-c2cnc(Nc3ccnc(-c4cnn(S(=O)(=O)C5CC5)c4)n3)cc2N[C@H]2CC[C@@H](C(C)(C)O)CC2)nc1 [Example 26, 2-((1s,4s)-4-((6′-((2-(1-(Cyclopropylsulfonyl)-1H-pyrazol-4-yl)pyrimidin-4-yl)amino)-5-((dimethylamino)methyl)-[2,3′-bipyridin]-4′-yl)amino)cyclohexyl)propan-2-ol]
370 | 1.7 | 0.3 | 0.1 | 1.6 | 0.3 | 0.4 | 0.2 | 0.1 | 0.3 | C[C@]1(O)CC[C@@H](Nc2cc(Nc3ccnc(-c4cnn(S(=O)(=O)C5CC5)c4)n3)ncc2-c2cccc(CO)n2)CC1 [Example 27, (1s,4s)-4-((6′-((2-(1-(Cyclopropylsulfonyl)-1H-pyrazol-4-yl)pyrimidin-4-yl)amino)-6-(hydroxymethyl)-[2,3′-bipyridin]-4′-yl)amino)-1-methylcyclohexan-1-ol]
1530 |  | 0.6 |  | 1.6 | 0.1 | 0.1 |  |  |  | CN1CCN(Cc2cccc(-c3cnc(Nc4ccnc(-c5cnn(S(=O)(=O)C6CC6)c5)n4)cc3N[C@H]3CC[C@@](C)(O)CC3)n2)CC1 [Example 28, (1s,4s)-4-((6′-((2-(1-(Cyclopropylsulfonyl)-1H-pyrazol-4-yl)pyrimidin-4-yl)amino)-6-((4-methylpiperazin-1-yl)methyl)-[2,3′-bipyridin]-4′-yl)amino)-1-methylcyclohexan-1-ol]
> 10000 |  | 1.8 |  | 26.2 | 0.2 | 0.4 |  |  |  | C[C@]1(O)CC[C@@H](Nc2cc(Nc3ccnc(-c4cnn(S(=O)(=O)C5CC5)c4)n3)ncc2-c2cccc(CN3CCOCC3)n2)CC1 [Example 29, (1s,4s)-4-((6′-((2-(1-(Cyclopropylsulfonyl)-1H-pyrazol-4-yl)pyrimidin-4-yl)amino)-6-(morpholinomethyl)-[2,3′-bipyridin]-4′-yl)amino)-1-methylcyclohexan-1-ol]
2910 |  | 0.4 |  | 2 | 0.1 | 0.1 |  |  |  | CN(C)Cc1cccc(-c2cnc(Nc3ccnc(-c4cnn(S(=O)(=O)C5CC5)c4)n3)cc2N[C@H]2CC[C@@](C)(O)CC2)n1 [Example 30, (1s,4s)-4-((6′-((2-(1-(Cyclopropylsulfonyl)-1H-pyrazol-4-yl)pyrimidin-4-yl)amino)-6-((dimethylamino)methyl)-[2,3′-bipyridin]-4′-yl)amino)-1-methylcyclohexan-1-ol]
52.6 | 0.3 | 0.1 | 0.1 | 0.8 | 0.2 | 0.1 | 0.1 | 0.1 | 0.2 | CN(C)Cc1ccc(-c2cnc(Nc3ccnc(-c4cnn(S(=O)(=O)C5CC5)c4)n3)cc2N[C@H]2CC[C@@](C)(O)CC2)nc1 [Example 31, (1s,4s)-4-((6′-((2-(1-(Cyclopropylsulfonyl)-1H-pyrazol-4-yl)pyrimidin-4-yl)amino)-5-((dimethylamino)methyl)-[2,3′-bipyridin]-4′-yl)amino)-1-methylcyclohexan-1-ol]
120 | 0.3 | 0.1 | 0.2 | 1.9 | 0.4 | 0.3 | 0.2 | 0.1 | 0.2 | C[C@]1(O)CC[C@@H](Nc2cc(Nc3ccnc(-c4cnn(S(=O)(=O)C5CC5)c4)n3)ncc2-c2ccc(CN3CCOCC3)cn2)CC1 [Example 32, (1s,4s)-4-((6′-((2-(1-(Cyclopropylsulfonyl)-1H-pyrazol-4-yl)pyrimidin-4-yl)amino)-5-(morpholinomethyl)-[2,3′-bipyridin]-4′-yl)amino)-1-methylcyclohexan-1-ol]
